Test results from ChEMBL document CHEMBL5625248, “Identification of unique indolylcyanoethylenyl sulfonylanilines as novel structural scaffolds of potential antibacterial agents” (Eur J Med Chem, 2023).
Converted amounts (≈) assume the structure as drawn.

What was measured:
Assay type in all cases: functional
Staphylococcus aureus [1] = assay: Antibacterial activity against Staphylococcus aureus ATCC 25923 assessed as inhibition of bacterial growth incubated for 18 hrs by two fold broth microdilution assay
Klebsiella pneumoniae = assay: Antibacterial activity against Klebsiella pneumoniae assessed as inhibition of bacterial growth incubated for 18 hrs by two fold broth microdilution assay
Pseudomonas aeruginosa [2] = assay: Antibacterial activity against Pseudomonas aeruginosa ATCC 27853 assessed as inhibition of bacterial growth incubated for 18 hrs by two fold broth microdilution assay
Escherichia coli [3] = assay: Antibacterial activity against Escherichia coli ATCC 25922 assessed as inhibition of bacterial growth incubated for 18 hrs by two fold broth microdilution assay
Escherichia coli [4] = assay: Antibacterial activity against Escherichia coli assessed as inhibition of bacterial growth incubated for 18 hrs by two fold broth microdilution assay
Staphylococcus aureus [5] = assay: Antibacterial activity against methicilin-resistant Staphylococcus aureus N315 assessed as inhibition of bacterial growth incubated for 18 hrs by two fold broth microdilution assay
Staphylococcus aureus [6] = assay: Antibacterial activity against Staphylococcus aureus assessed as inhibition of bacterial growth incubated for 18 hrs by two fold broth microdilution assay
Pseudomonas aeruginosa [7] = assay: Antibacterial activity against Pseudomonas aeruginosa assessed as inhibition of bacterial growth incubated for 18 hrs by two fold broth microdilution assay
Staphylococcus aureus [8] = assay: Antibacterial activity against Staphylococcus aureus ATCC 29213 assessed as inhibition of bacterial growth incubated for 18 hrs by two fold broth microdilution assay
Enterococcus faecalis = assay: Antibacterial activity against Enterococcus faecalis assessed as inhibition of bacterial growth incubated for 18 hrs by two fold broth microdilution assay
Acinetobacter baumannii = assay: Antibacterial activity against Acinetobacter baumannii assessed as inhibition of bacterial growth incubated for 18 hrs by two fold broth microdilution assay

Structure (SMILES) | MIC (Staphylococcus aureus [1]) | MIC (Klebsiella pneumoniae) | MIC (Pseudomonas aeruginosa [2]) | MIC (Escherichia coli [3]) | MIC (Escherichia coli [4]) | MIC (Staphylococcus aureus [5]) | MIC (Staphylococcus aureus [6]) | MIC (Pseudomonas aeruginosa [7]) | MIC (Staphylococcus aureus [8]) | MIC (Enterococcus faecalis) | MIC (Acinetobacter baumannii)
CCCCn1cc(/C=C(\C#N)S(=O)(=O)c2ccc(NC(C)=O)cc2)c2ccccc21 | 1 µg/mL (≈ 2.37 µM) | 8 µg/mL (≈ 19 µM) | 8 µg/mL (≈ 19 µM) | 4 µg/mL (≈ 9.49 µM) | 64 µg/mL (≈ 152 µM) | 256 µg/mL (≈ 607 µM) | 2 µg/mL (≈ 4.74 µM) | 4 µg/mL (≈ 9.49 µM) | 8 µg/mL (≈ 19 µM) | 4 µg/mL (≈ 9.49 µM) | 1 µg/mL (≈ 2.37 µM)
CC(C)=CCn1cc(/C=C(\C#N)S(=O)(=O)c2ccc(N)cc2)c2ccccc21 | 16 µg/mL (≈ 40.9 µM) | 8 µg/mL (≈ 20.4 µM) | 8 µg/mL (≈ 20.4 µM) | 8 µg/mL (≈ 20.4 µM) | 8 µg/mL (≈ 20.4 µM) | 32 µg/mL (≈ 81.7 µM) | 64 µg/mL (≈ 163 µM) | 2 µg/mL (≈ 5.11 µM) | 128 µg/mL (≈ 327 µM) | 128 µg/mL (≈ 327 µM) | 0.5 µg/mL (≈ 1.28 µM)
CC(=O)Nc1ccc(S(=O)(=O)/C(C#N)=C/c2cn(CC(=O)N(C(C)C)C(C)C)c3ccccc23)cc1 | 32 µg/mL (≈ 63.2 µM) | 32 µg/mL (≈ 63.2 µM) | 64 µg/mL (≈ 126 µM) | 64 µg/mL (≈ 126 µM) | 64 µg/mL (≈ 126 µM) | 64 µg/mL (≈ 126 µM) | 32 µg/mL (≈ 63.2 µM) | 64 µg/mL (≈ 126 µM) | 64 µg/mL (≈ 126 µM) | 64 µg/mL (≈ 126 µM) | 32 µg/mL (≈ 63.2 µM)
CCCCCCn1cc(/C=C(\C#N)S(=O)(=O)c2ccc(N)cc2)c2ccccc21 | 2 µg/mL (≈ 4.91 µM) | 128 µg/mL (≈ 314 µM) | 8 µg/mL (≈ 19.6 µM) | 64 µg/mL (≈ 157 µM) | 8 µg/mL (≈ 19.6 µM) | 32 µg/mL (≈ 78.5 µM) | 256 µg/mL (≈ 628 µM) | 8 µg/mL (≈ 19.6 µM) | 4 µg/mL (≈ 9.82 µM) | 4 µg/mL (≈ 9.82 µM) | 8 µg/mL (≈ 19.6 µM)
CC(=O)Nc1ccc(S(=O)(=O)/C(C#N)=C/c2cn(Cc3ccc([N+](=O)[O-])cc3)c3ccccc23)cc1 | 256 µg/mL (≈ 511 µM) | 16 µg/mL (≈ 32 µM) | 256 µg/mL (≈ 511 µM) | 64 µg/mL (≈ 128 µM) | 256 µg/mL (≈ 511 µM) | 16 µg/mL (≈ 32 µM) | 256 µg/mL (≈ 511 µM) | 128 µg/mL (≈ 256 µM) | 2 µg/mL (≈ 4 µM) | 128 µg/mL (≈ 256 µM) | 64 µg/mL (≈ 128 µM)
CC(=O)Nc1ccc(S(=O)(=O)/C(C#N)=C/c2cn(Cc3ccccc3F)c3ccccc23)cc1 | 4 µg/mL (≈ 8.45 µM) | 256 µg/mL (≈ 541 µM) | 16 µg/mL (≈ 33.8 µM) | 64 µg/mL (≈ 135 µM) | 128 µg/mL (≈ 270 µM) | 256 µg/mL (≈ 541 µM) | 128 µg/mL (≈ 270 µM) | 64 µg/mL (≈ 135 µM) | 4 µg/mL (≈ 8.45 µM) | 8 µg/mL (≈ 16.9 µM) | 16 µg/mL (≈ 33.8 µM)
CC(=O)Nc1ccc(S(=O)(=O)/C(C#N)=C/c2cn(C)c3ccccc23)cc1 | 8 µg/mL (≈ 21.1 µM) | 128 µg/mL (≈ 337 µM) | 64 µg/mL (≈ 169 µM) | 0.5 µg/mL (≈ 1.32 µM) | 16 µg/mL (≈ 42.2 µM) | 16 µg/mL (≈ 42.2 µM) | 128 µg/mL (≈ 337 µM) | 32 µg/mL (≈ 84.3 µM) | 128 µg/mL (≈ 337 µM) | 128 µg/mL (≈ 337 µM) | 0.5 µg/mL (≈ 1.32 µM)
CCn1cc(/C=C(\C#N)S(=O)(=O)c2ccc(NC(C)=O)cc2)c2ccccc21 | 4 µg/mL (≈ 10.2 µM) | 32 µg/mL (≈ 81.3 µM) | 8 µg/mL (≈ 20.3 µM) | 128 µg/mL (≈ 325 µM) | 128 µg/mL (≈ 325 µM) | 64 µg/mL (≈ 163 µM) | 128 µg/mL (≈ 325 µM) | 64 µg/mL (≈ 163 µM) | 4 µg/mL (≈ 10.2 µM) | 16 µg/mL (≈ 40.7 µM) | 64 µg/mL (≈ 163 µM)
N#C/C(=C\c1cn(CC2CCCCC2)c2ccccc12)S(=O)(=O)c1ccc(N)cc1 | 2 µg/mL (≈ 4.77 µM) | 4 µg/mL (≈ 9.53 µM) | 2 µg/mL (≈ 4.77 µM) | 2 µg/mL (≈ 4.77 µM) | 4 µg/mL (≈ 9.53 µM) | 1 µg/mL (≈ 2.38 µM) | 16 µg/mL (≈ 38.1 µM) | 4 µg/mL (≈ 9.53 µM) | 2 µg/mL (≈ 4.77 µM) | 8 µg/mL (≈ 19.1 µM) | 32 µg/mL (≈ 76.3 µM)
CC(=O)Nc1ccc(S(=O)(=O)/C(C#N)=C/c2cn(C(=O)OC(C)(C)C)c3ccccc23)cc1 | 128 µg/mL (≈ 275 µM) | 128 µg/mL (≈ 275 µM) | 128 µg/mL (≈ 275 µM) | 128 µg/mL (≈ 275 µM) | 128 µg/mL (≈ 275 µM) | 32 µg/mL (≈ 68.7 µM) | 128 µg/mL (≈ 275 µM) | 128 µg/mL (≈ 275 µM) | 2 µg/mL (≈ 4.3 µM) | 128 µg/mL (≈ 275 µM) | 64 µg/mL (≈ 137 µM)
CCn1cc(/C=C(\C#N)S(=O)(=O)c2ccc(N)cc2)c2ccccc21 | 64 µg/mL (≈ 182 µM) | 8 µg/mL (≈ 22.8 µM) | 8 µg/mL (≈ 22.8 µM) | 8 µg/mL (≈ 22.8 µM) | 8 µg/mL (≈ 22.8 µM) | 16 µg/mL (≈ 45.5 µM) | 1 µg/mL (≈ 2.85 µM) | 1 µg/mL (≈ 2.85 µM) | 1 µg/mL (≈ 2.85 µM) | 8 µg/mL (≈ 22.8 µM) | 1 µg/mL (≈ 2.85 µM)
CC(=O)Nc1ccc(S(=O)(=O)/C(C#N)=C/c2cn(Cc3ccc(Cl)cc3Cl)c3ccccc23)cc1 | 64 µg/mL (≈ 122 µM) | 4 µg/mL (≈ 7.63 µM) | 32 µg/mL (≈ 61 µM) | 64 µg/mL (≈ 122 µM) | 256 µg/mL (≈ 488 µM) | 64 µg/mL (≈ 122 µM) | 16 µg/mL (≈ 30.5 µM) | 64 µg/mL (≈ 122 µM) | 8 µg/mL (≈ 15.3 µM) | 256 µg/mL (≈ 488 µM) | 8 µg/mL (≈ 15.3 µM)
C=CCn1cc(/C=C(\C#N)S(=O)(=O)c2ccc(N)cc2)c2ccccc21 | 4 µg/mL (≈ 11 µM) | 8 µg/mL (≈ 22 µM) | 8 µg/mL (≈ 22 µM) | 16 µg/mL (≈ 44 µM) | 8 µg/mL (≈ 22 µM) | 32 µg/mL (≈ 88 µM) | 64 µg/mL (≈ 176 µM) | 64 µg/mL (≈ 176 µM) | 4 µg/mL (≈ 11 µM) | 8 µg/mL (≈ 22 µM) | 64 µg/mL (≈ 176 µM)
C=CCn1cc(/C=C(\C#N)S(=O)(=O)c2ccc(NC(C)=O)cc2)c2ccccc21 | 4 µg/mL (≈ 9.86 µM) | 8 µg/mL (≈ 19.7 µM) | 16 µg/mL (≈ 39.5 µM) | 1 µg/mL (≈ 2.47 µM) | 8 µg/mL (≈ 19.7 µM) | 8 µg/mL (≈ 19.7 µM) | 256 µg/mL (≈ 631 µM) | 8 µg/mL (≈ 19.7 µM) | 256 µg/mL (≈ 631 µM) | 8 µg/mL (≈ 19.7 µM) | 2 µg/mL (≈ 4.93 µM)
CCN(CC)C(=O)Cn1cc(/C=C(\C#N)S(=O)(=O)c2ccc(NC(C)=O)cc2)c2ccccc21 | 8 µg/mL (≈ 16.7 µM) | 64 µg/mL (≈ 134 µM) | 256 µg/mL (≈ 535 µM) | 128 µg/mL (≈ 267 µM) | 32 µg/mL (≈ 66.9 µM) | 128 µg/mL (≈ 267 µM) | 256 µg/mL (≈ 535 µM) | 32 µg/mL (≈ 66.9 µM) | 2 µg/mL (≈ 4.18 µM) | 128 µg/mL (≈ 267 µM) | 128 µg/mL (≈ 267 µM)
N#C/C(=C\c1cn(CCN2CCOCC2)c2ccccc12)S(=O)(=O)c1ccc(N)cc1 | 32 µg/mL (≈ 73.3 µM) | 128 µg/mL (≈ 293 µM) | 64 µg/mL (≈ 147 µM) | 0.5 µg/mL (≈ 1.15 µM) | 16 µg/mL (≈ 36.7 µM) | 16 µg/mL (≈ 36.7 µM) | 32 µg/mL (≈ 73.3 µM) | 64 µg/mL (≈ 147 µM) | 64 µg/mL (≈ 147 µM) | 256 µg/mL (≈ 586 µM) | 64 µg/mL (≈ 147 µM)
N#C/C(=C\c1c[nH]c2cc(Br)ccc12)S(=O)(=O)c1ccc(N)cc1 | 16 µg/mL (≈ 39.8 µM) | 16 µg/mL (≈ 39.8 µM) | 32 µg/mL (≈ 79.5 µM) | 128 µg/mL (≈ 318 µM) | 32 µg/mL (≈ 79.5 µM) | 128 µg/mL (≈ 318 µM) | 256 µg/mL (≈ 636 µM) | 32 µg/mL (≈ 79.5 µM) | 32 µg/mL (≈ 79.5 µM) | 128 µg/mL (≈ 318 µM) | 8 µg/mL (≈ 19.9 µM)
N#C/C(=C\c1cn(CC2CC2)c2ccccc12)S(=O)(=O)c1ccc(N)cc1 | 64 µg/mL (≈ 170 µM) | 16 µg/mL (≈ 42.4 µM) | 16 µg/mL (≈ 42.4 µM) | 16 µg/mL (≈ 42.4 µM) | 256 µg/mL (≈ 678 µM) | 128 µg/mL (≈ 339 µM) | 32 µg/mL (≈ 84.8 µM) | 64 µg/mL (≈ 170 µM) | 32 µg/mL (≈ 84.8 µM) | 128 µg/mL (≈ 339 µM) | 64 µg/mL (≈ 170 µM)
CC(=O)Nc1ccc(S(=O)(=O)/C(C#N)=C/c2cn(CC=C(C)C)c3ccccc23)cc1 | 8 µg/mL (≈ 18.5 µM) | 16 µg/mL (≈ 36.9 µM) | 8 µg/mL (≈ 18.5 µM) | 8 µg/mL (≈ 18.5 µM) | 8 µg/mL (≈ 18.5 µM) | 64 µg/mL (≈ 148 µM) | 4 µg/mL (≈ 9.23 µM) | 64 µg/mL (≈ 148 µM) | 8 µg/mL (≈ 18.5 µM) | 4 µg/mL (≈ 9.23 µM) | 8 µg/mL (≈ 18.5 µM)
CC(=O)Nc1ccc(S(=O)(=O)/C(C#N)=C/c2cn(CCO)c3ccccc23)cc1 | 2 µg/mL (≈ 4.88 µM) | 2 µg/mL (≈ 4.88 µM) | 8 µg/mL (≈ 19.5 µM) | 1 µg/mL (≈ 2.44 µM) | 4 µg/mL (≈ 9.77 µM) | 32 µg/mL (≈ 78.2 µM) | 2 µg/mL (≈ 4.88 µM) | 4 µg/mL (≈ 9.77 µM) | 2 µg/mL (≈ 4.88 µM) | 4 µg/mL (≈ 9.77 µM) | 32 µg/mL (≈ 78.2 µM)
